Laboratory results: article PMC7410094 (ACS chemical biology, 2020)

Experiments:
MelBSt = MelBSt (Salmonella enterica, UniProt P30878); assay: Trp to dansyl FRET; format: binding; settings: DDM or MTG-E13 micelles; active site
MelBEC = MelBEC (Escherichia coli, UniProt P02921); assay: Trp to dansyl FRET; format: binding; settings: MTG-E13 micelles (response lost in DDM); active site
β2AR = β2AR (Homo sapiens, UniProt P07550); assay: radioligand binding assay; settings: labelled compound; antagonist; DDM or MTG micelles at CMC+0.2 wt%
Chain of β2AR (P07550 whole entry): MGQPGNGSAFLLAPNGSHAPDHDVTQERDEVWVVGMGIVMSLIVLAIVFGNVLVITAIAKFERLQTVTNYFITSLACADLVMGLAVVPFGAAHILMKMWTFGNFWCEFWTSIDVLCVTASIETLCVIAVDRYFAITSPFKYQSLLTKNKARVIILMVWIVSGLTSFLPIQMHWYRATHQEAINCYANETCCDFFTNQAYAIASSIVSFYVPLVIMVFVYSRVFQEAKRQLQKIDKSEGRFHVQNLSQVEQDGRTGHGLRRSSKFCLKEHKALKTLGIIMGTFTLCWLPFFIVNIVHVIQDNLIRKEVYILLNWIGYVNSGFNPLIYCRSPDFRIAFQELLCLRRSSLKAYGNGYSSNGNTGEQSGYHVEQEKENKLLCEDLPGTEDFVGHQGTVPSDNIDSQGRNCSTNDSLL

Chain of MelBSt (P30878 whole entry): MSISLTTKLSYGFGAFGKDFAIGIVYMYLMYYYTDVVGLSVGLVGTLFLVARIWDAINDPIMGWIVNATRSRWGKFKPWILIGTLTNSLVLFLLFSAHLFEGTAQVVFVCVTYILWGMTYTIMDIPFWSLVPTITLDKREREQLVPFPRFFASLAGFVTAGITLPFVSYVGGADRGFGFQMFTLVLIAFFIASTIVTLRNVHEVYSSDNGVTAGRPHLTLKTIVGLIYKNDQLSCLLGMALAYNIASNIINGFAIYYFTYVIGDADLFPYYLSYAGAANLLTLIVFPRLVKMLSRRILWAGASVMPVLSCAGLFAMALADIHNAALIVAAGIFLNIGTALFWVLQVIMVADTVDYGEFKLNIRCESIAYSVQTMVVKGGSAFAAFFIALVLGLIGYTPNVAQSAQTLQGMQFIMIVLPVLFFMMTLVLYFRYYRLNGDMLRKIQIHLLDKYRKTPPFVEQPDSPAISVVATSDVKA
Chain of MelBEC (P02921 2-473): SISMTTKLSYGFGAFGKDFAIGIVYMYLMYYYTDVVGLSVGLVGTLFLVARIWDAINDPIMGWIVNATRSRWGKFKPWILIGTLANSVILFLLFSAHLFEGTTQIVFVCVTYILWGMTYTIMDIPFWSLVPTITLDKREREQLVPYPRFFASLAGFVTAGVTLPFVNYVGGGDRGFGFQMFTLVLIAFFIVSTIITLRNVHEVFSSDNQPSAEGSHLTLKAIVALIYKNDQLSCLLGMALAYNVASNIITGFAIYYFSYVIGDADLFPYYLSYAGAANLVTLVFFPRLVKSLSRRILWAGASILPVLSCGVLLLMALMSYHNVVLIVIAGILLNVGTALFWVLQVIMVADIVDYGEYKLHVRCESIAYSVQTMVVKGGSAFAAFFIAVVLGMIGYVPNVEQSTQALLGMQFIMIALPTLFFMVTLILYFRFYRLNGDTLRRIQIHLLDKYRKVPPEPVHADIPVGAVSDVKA

CN(C)c1cccc2c(S(=O)(=O)NCCS[C@@H]3O[C@H](CO)[C@H](O)[C@H](O)[C@H]3O)cccc12 [D^2G, 2’-(N-dansyl)aminoalkyl-1-thio-β-D-galactopyranoside]
Trp to dansyl FRET (MelBSt): DDM-solubilized MelBSt showed initial increase and subsequent decrease in the fluorescence signal
Trp to dansyl FRET (MelBEC): MTG-E13, was effective at preserving the functionality of this less stable MelB homologue

CCCc1ccccc1OCC(O)CNC(C)C (stereo not drawn) [[^3H]-dihydroalprenolol]
radioligand binding assay (β2AR): the MTGs led to [^3H]-DHA-binding capability of the receptor comparable to DDM
